The text below walks through data of patent US20240158446A1, “CYCLIC COMPOUND HAVING SELECTIVE INHIBITORY ACTION ON KRAS OVER HRAS AND NRAS” (CHUGAI SEIYAKU KABUSHIKI KAISHA, priority 2021, published 2024).

*1 amine or outer side, *2 acyl side, *3 side chain or, on linkers, in order; H or OH if unused. Where a SMILES comes first, the peptide text is derived from it. Bridges are numbered along the chain shown (N, C = ends). [ ]: non-standard residue; d: D form. The star is where a group is joined. hPhe(3-Cl-4-CF3) = N[C@@H](CCc1ccc(C(F)(F)F)c(Cl)c1)C(=O)O; NPrPhe(4-CF3) = CCCN[C@@H](Cc1ccc(C(F)(F)F)cc1)C(=O)O; X2 = CCCN([C@@H](COC1CCC1)C(=O)[*:2])[*:1]; X7 = CCN([C@H](C(=O)[*:2])C1CCCC1)[*:1]; NMeGly(cPent) = CN[C@H](C(=O)O)C1CCCC1; NMeD = CN[C@@H](CC(=O)O)C(=O)O; NMeL = CN[C@@H](CC(C)C)C(=O)O; Morpholide = C1CN(*)CCO1; Ac4c = NC1(C(=O)O)CCC1; Sar = CNCC(=O)O

Experiment [1] concerns the target GDP-bound KRAS wild-type protein (Homo sapiens, UniProt P01116). The experiment is described as follows: Binding to KRAS by surface plasmon resonance (SPR), Single Cycle Kinetics. The settings on record: SPR, Single Cycle Kinetics, GDP-bound KRAS wild-type protein; read-out: KRAS KD. A general note: Surface plasmon resonance follows binding to a sensor surface in real time, without labels.

The target of experiment [2] is GDP-bound NRAS wild-type protein (Homo sapiens, UniProt P01111). Description: Binding to NRAS by surface plasmon resonance (SPR), Single Cycle Kinetics. The settings on record: ratio of KD for GDP-bound NRAS wild-type protein to KD for KRAS, SPR.
Sequence of GDP-bound NRAS wild-type protein (P01111 whole entry): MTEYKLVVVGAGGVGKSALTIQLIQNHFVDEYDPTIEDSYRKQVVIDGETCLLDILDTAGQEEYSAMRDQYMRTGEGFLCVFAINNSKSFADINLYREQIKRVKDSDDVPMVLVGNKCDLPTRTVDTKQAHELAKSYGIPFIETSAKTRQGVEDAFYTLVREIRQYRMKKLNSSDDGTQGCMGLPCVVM
For experiment [3], the target named is GDP-bound HRAS wild-type protein (Homo sapiens, UniProt P01112). Description: Binding to HRAS by surface plasmon resonance (SPR), Single Cycle Kinetics. The settings on record: ratio of KD for GDP-bound HRAS wild-type protein to KD for KRAS, SPR.
Sequence of GDP-bound HRAS wild-type protein (P01112 whole entry): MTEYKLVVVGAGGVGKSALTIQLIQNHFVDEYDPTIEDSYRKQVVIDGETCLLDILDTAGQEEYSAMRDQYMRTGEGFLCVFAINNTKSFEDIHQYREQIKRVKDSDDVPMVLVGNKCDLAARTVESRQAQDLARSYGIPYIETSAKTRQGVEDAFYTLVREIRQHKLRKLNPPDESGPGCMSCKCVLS
For experiment [4], the system named is human lung cancer strain NCI-H441. Description: cells. To be noted: NCI-H441, 96 h, read-out: NCI-H441 IC50 (nM), NCI-H441 cell proliferation, 4 days, CellTiter-Glo. A general note: In ATP-based viability assays light output follows the ATP content of the culture.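 Note: cell proliferation inhibition after four days measured by CellTiter-Glo.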

Sequence of GDP-bound KRAS wild-type protein (P01116 whole entry): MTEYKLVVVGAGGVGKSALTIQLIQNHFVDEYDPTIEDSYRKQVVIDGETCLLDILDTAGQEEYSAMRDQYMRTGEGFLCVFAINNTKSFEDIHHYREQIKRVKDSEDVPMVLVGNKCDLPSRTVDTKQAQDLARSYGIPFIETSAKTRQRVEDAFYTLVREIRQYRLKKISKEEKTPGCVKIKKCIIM

On to `CCCN(C)C(=O)[C@@H]1CC(=O)N(C)[C@@H](COCC)C(=O)N[C@@H]([C@@H](C)CC)C(=O)N(C)CC(=O)N(C)[C@H]2C/C=C\CCN(C2=O)[C@@H](Cc2ccc(C(F)(F)F)cc2)C(=O)N(C)CC(=O)N[C@@H](CCc2cc(F)c(C(F)(F)F)c(F)c2)C(=O)N2C[C@H](OCC)C[C@H]2C(=O)NC2(CC(C)(C)C2)C(=O)N(C)[C@@H](C2CCCC2)C(=O)N1C` [PP2031], for which the Kd in experiment [1] was found to be 0.14 nM. Besides, the “NRAS/KRAS (KD ratio)” value in experiment [2] is “B (a compound having 3 or more and less than 10 is denoted as B)”. Further, the “HRAS/KRAS (KD ratio)” value in experiment [3] was “B (a compound having 3 or more and less than 10 is denoted as B)”. Also, the IC50 in experiment [4] came out at 5.5 nM.
`CCCN1C(=O)CN(C)C(=O)CN(C)C(=O)[C@H]([C@@H](C)CC)NC(=O)[C@H](CC(C)C)N(C)C(=O)C[C@@H](C(=O)N2CCOCC2)N(C)C(=O)[C@H](C2CCCC2)N(CC)C(=O)C2(CCC2)NC(=O)[C@@H]2CCCN2C(=O)[C@H](CCc2ccc(C(F)(F)F)c(Cl)c2)NC(=O)CN(C)C(=O)[C@@H]1Cc1ccc(C(F)(F)F)cc1` [PP1952] ([NMeL]I[Sar][Sar][NPrPhe(4-CF3)][Sar][hPhe(3-Cl-4-CF3)]P[Ac4c][X7][NMeD]-Morpholide; lactam N-11): the Kd in experiment [1] came to 0.13 nM. In addition, the “NRAS/KRAS (KD ratio)” value in experiment [2] is “B (a compound having 3 or more and less than 10 is denoted as B)”. Moreover, the “HRAS/KRAS (KD ratio)” value in experiment [3] was “B (a compound having 3 or more and less than 10 is denoted as B)”. In addition, the IC50 in experiment [4] is 14 nM.
Turning to `CCO[C@@H]1C[C@H]2C(=O)N(C)C3(CCC3)C(=O)N(C)[C@@H](C3CCCC3)C(=O)N(C)[C@H](C(=O)N(C)C)CC(=O)N(C)[C@@H](CC)C(=O)N[C@@H]([C@@H](C)CC)C(=O)N(C)CC(=O)N(C)[C@H]3C/C=C\CCN(C3=O)[C@@H](Cc3ccc(C(F)(F)F)cc3)C(=O)N(C)CC(=O)N[C@@H](CCc3cc(F)c(C(F)(F)F)c(F)c3)C(=O)N2C1` [PP1779], the Kd in experiment [1] turned out to be 0.034 nM. In addition, the “NRAS/KRAS (KD ratio)” value in experiment [2] is “A (a compound having 10 or more and less than 20 is denoted as A)”. Moreover, in experiment [3], the “HRAS/KRAS (KD ratio)” value is “B (a compound having 3 or more and less than 10 is denoted as B)”. In addition, the IC50 in experiment [4] worked out at 5.4 nM.
`CCCN1C(=O)CN(C)C(=O)CN(C)C(=O)[C@H]([C@@H](C)CC)NC(=O)[C@H](CC(C)C)N(C)C(=O)C[C@@H](C(=O)N2CCOCC2)N(C)C(=O)[C@H](C2CCCC2)N(C)C(=O)C2(CCC2)NC(=O)[C@@H]2CCCN2C(=O)[C@H](CCc2ccc(C(F)(F)F)c(Cl)c2)NC(=O)CN(C)C(=O)[C@@H]1COC1CCC1` [PP1816] ([NMeL]I[Sar][Sar][X2][Sar][hPhe(3-Cl-4-CF3)]P[Ac4c][NMeGly(cPent)][NMeD]-Morpholide; lactam N-11): the Kd in experiment [1] stood at 1.2 nM. Also, the “NRAS/KRAS (KD ratio)” value in experiment [2] was “B (a compound having 3 or more and less than 10 is denoted as B)”. In addition, the “HRAS/KRAS (KD ratio)” value in experiment [3] was “C (A compound having a KD ratio of 0.1 or more and less than 3 is denoted as C)”. The IC50 in experiment [4] came out at 63.8 nM.
For `CC[C@H](C)[C@@H]1NC(=O)[C@H](C2CCC2)N(C)C(=O)C[C@@H](C(=O)N(C)CC)N(C)C(=O)[C@H](C2CCCC2)N(C)C(=O)C2(CC(C)(C)C2)NC(=O)[C@@H]2C[C@H](C)CN2C(=O)[C@H](CCc2cc(F)c(C(F)(F)F)c(F)c2)NC(=O)CN(C)C(=O)[C@H](Cc2ccc(C(F)(F)F)cc2)N2CC/C=C\C[C@@H](C2=O)N(C)C(=O)CN(C)C1=O` [PP1984], the Kd in experiment [1] came to 0.3 nM. Also, the “NRAS/KRAS (KD ratio)” value in experiment [2] is “A (a compound having 10 or more and less than 20 is denoted as A)”. In addition, the “HRAS/KRAS (KD ratio)” value in experiment [3] is “A (a compound having 10 or more and less than 20 is denoted as A)”. The IC50 in experiment [4] worked out at 50.8 nM.

Usually Kd stands for the free concentration of one partner at which half of the binding sites on the other are occupied at equilibrium, for simple one-to-one binding.
